Results as given in PubChem BioAssay (NCI).
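How tested: cells in 96-well plates exposed to compound for 48 hours at five concentrations. Abbreviation: GI50, concentration required for 50% inhibition of growth. TGI is the concentration that stops growth completely.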

Key:
Test in all cases: NCI-60 cell line screen, 48 h
UACC-257 melanoma = test system: UACC-257 melanoma
SF-295 CNS = test system: SF-295 CNS
OVCAR-8 ovarian = test system: OVCAR-8 ovarian
HOP-92 NSCLC = test system: HOP-92 NSCLC
SK-MEL-5 melanoma = test system: SK-MEL-5 melanoma
M14 melanoma = test system: M14 melanoma
MOLT-4 leukemia = test system: MOLT-4 leukemia
MDA-MB-231 breast = test system: MDA-MB-231 breast
OVCAR-3 ovarian = test system: OVCAR-3 ovarian
TK-10 renal = test system: TK-10 renal
HS 578T breast = test system: HS 578T breast
U251 CNS = test system: U251 CNS
SN12C renal = test system: SN12C renal
KM12 colon = test system: KM12 colon
A549 NSCLC = test system: A549 NSCLC
RPMI-8226 leukemia = test system: RPMI-8226 leukemia
MALME-3M melanoma = test system: MALME-3M melanoma
NCI-H460 lung = test system: NCI-H460 lung
HCT-15 colon = test system: HCT-15 colon
A498 renal = test system: A498 renal
SW-620 colon = test system: SW-620 colon
BT-549 breast = test system: BT-549 breast
LOX IMVI melanoma = test system: LOX IMVI melanoma
MDA-MB-435 = test system: MDA-MB-435
K-562 leukemia = test system: K-562 leukemia
CCRF-CEM leukemia = test system: CCRF-CEM leukemia
PC-3 prostate = test system: PC-3 prostate
CAKI-1 renal = test system: CAKI-1 renal
DU-145 prostate = test system: DU-145 prostate
ACHN renal = test system: ACHN renal
NCI-H226 lung = test system: NCI-H226 lung
SF-539 CNS = test system: SF-539 CNS
IGROV1 ovarian = test system: IGROV1 ovarian
UACC-62 melanoma = test system: UACC-62 melanoma
SK-OV-3 ovarian = test system: SK-OV-3 ovarian
SR leukemia = test system: SR leukemia
T-47D breast = test system: T-47D breast
MCF7 breast = test system: MCF7 breast
NCI-H23 lung = test system: NCI-H23 lung
SK-MEL-28 melanoma = test system: SK-MEL-28 melanoma
HOP-62 NSCLC = test system: HOP-62 NSCLC
SF-268 CNS = test system: SF-268 CNS
HCC-2998 colon = test system: HCC-2998 colon
UO-31 renal = test system: UO-31 renal
SNB-75 CNS = test system: SNB-75 CNS
COLO 205 colon = test system: COLO 205 colon
EKVX NSCLC = test system: EKVX NSCLC
786-0 renal = test system: 786-0 renal
OVCAR-4 ovarian = test system: OVCAR-4 ovarian
HT29 colon = test system: HT29 colon
SK-MEL-2 melanoma = test system: SK-MEL-2 melanoma
HCT-116 colon = test system: HCT-116 colon
SNB-19 CNS = test system: SNB-19 CNS
RXF 393 renal = test system: RXF 393 renal
NCI-H522 lung = test system: NCI-H522 lung
OVCAR-5 ovarian = test system: OVCAR-5 ovarian
NCI/ADR-RES ovarian = test system: NCI/ADR-RES ovarian
HL-60(TB) leukemia = test system: HL-60(TB) leukemia

## c1ccc2c(c1)ccc1cc3cc(NCCCCNc4ccc5nc6c(ccc7ccccc76)cc5c4)ccc3nc12
UACC-257 melanoma
  TGI: 3.11 µM
SF-295 CNS
  TGI: 3.03 µM
OVCAR-8 ovarian
  TGI: 0.303 µM
HOP-92 NSCLC
  TGI: 4.09 µM
SK-MEL-5 melanoma
  TGI: 2670 nM
M14 melanoma
  TGI: 3.29 µM
MOLT-4 leukemia
  TGI: 418 nM
MDA-MB-231 breast
  TGI: 0.348 µM
OVCAR-3 ovarian
  TGI: 4.06 µM
TK-10 renal
  TGI: 3.18 µM
HS 578T breast
  TGI: 4.25 µM
U251 CNS
  TGI: 0.374 µM
SN12C renal
  TGI: 2.7 µM
KM12 colon
  TGI: 532 nM
A549 NSCLC
  TGI: 2840 nM
RPMI-8226 leukemia
  TGI: 1480 nM
MALME-3M melanoma
  TGI: 3.16 µM
NCI-H460 lung
  TGI: 0.53 µM
HCT-15 colon
  TGI: 2.01 µM
A498 renal
  TGI: 2430 nM
SW-620 colon
  TGI: 0.405 µM
BT-549 breast
  TGI: 4.06 µM
LOX IMVI melanoma
  TGI: 3.43 µM
MDA-MB-435
  TGI: 3.45 µM
K-562 leukemia
  TGI: 3.55 µM
CCRF-CEM leukemia
  TGI: 2290 nM
PC-3 prostate
  TGI: 2.67 µM
CAKI-1 renal
  TGI: 3.54 µM
DU-145 prostate
  TGI: 2.67 µM
ACHN renal
  TGI: 2.68 µM
NCI-H226 lung
  TGI: 3.24 µM
SF-539 CNS
  TGI: 2880 nM
IGROV1 ovarian
  TGI: 2.99 µM
UACC-62 melanoma
  TGI: 3.04 µM
SK-OV-3 ovarian
  TGI: 6.34 µM
SR leukemia
  TGI: 43 nM

## Nc1c([N+](=O)[O-])ncn1C1OC(CO)C(O)C1O (stereo unspecified)
UACC-257 melanoma
  GI50: > 100 µM
  TGI: > 100 µM
SF-295 CNS
  GI50: > 100 µM
  TGI: > 100 µM
OVCAR-8 ovarian
  GI50: > 100 µM
  TGI: > 100 µM
SK-MEL-5 melanoma
  GI50: > 100 µM
  TGI: > 100000 nM
T-47D breast
  GI50: > 100 µM
  TGI: > 100 µM
MCF7 breast
  GI50: > 100 µM
  TGI: > 100 µM
NCI-H23 lung
  GI50: > 100 µM
  TGI: > 100 µM
M14 melanoma
  GI50: > 100 µM
  TGI: > 100 µM
MOLT-4 leukemia
  GI50: > 100 µM
  TGI: > 100000 nM
MDA-MB-231 breast
  GI50: > 100 µM
  TGI: > 100 µM
OVCAR-3 ovarian
  GI50: > 100 µM
  TGI: > 100 µM
TK-10 renal
  GI50: > 100 µM
  TGI: > 100 µM
HS 578T breast
  GI50: > 100 µM
  TGI: > 100 µM
U251 CNS
  GI50: > 100 µM
  TGI: > 100 µM
SN12C renal
  GI50: > 100 µM
  TGI: > 100 µM
KM12 colon
  GI50: > 100 µM
  TGI: > 100000 nM
SK-MEL-28 melanoma
  GI50: > 100 µM
  TGI: > 100 µM
A549 NSCLC
  GI50: > 100 µM
  TGI: > 100000 nM
RPMI-8226 leukemia
  GI50: > 100 µM
  TGI: > 100000 nM
NCI-H460 lung
  GI50: > 100 µM
  TGI: > 100 µM
HOP-62 NSCLC
  GI50: > 100 µM
  TGI: > 100 µM
HCT-15 colon
  GI50: > 100 µM
  TGI: > 100 µM
A498 renal
  GI50: > 100 µM
  TGI: > 100000 nM
SW-620 colon
  GI50: > 100 µM
  TGI: > 100 µM
BT-549 breast
  GI50: > 100 µM
  TGI: > 100 µM
SF-268 CNS
  GI50: > 100 µM
  TGI: > 100 µM
HCC-2998 colon
  GI50: > 100 µM
  TGI: > 100 µM
LOX IMVI melanoma
  GI50: > 100 µM
  TGI: > 100 µM
UO-31 renal
  GI50: > 100 µM
  TGI: > 100 µM
SNB-75 CNS
  GI50: > 100 µM
  TGI: > 100 µM
COLO 205 colon
  GI50: > 100 µM
  TGI: > 100 µM
MDA-MB-435
  GI50: > 100 µM
  TGI: > 100 µM
EKVX NSCLC
  GI50: > 100 µM
  TGI: > 100 µM
786-0 renal
  GI50: > 100 µM
  TGI: > 100 µM
K-562 leukemia
  GI50: > 100 µM
  TGI: > 100 µM
CCRF-CEM leukemia
  GI50: > 100 µM
  TGI: > 100000 nM
OVCAR-4 ovarian
  GI50: > 100 µM
  TGI: > 100 µM
PC-3 prostate
  GI50: > 100 µM
  TGI: > 100 µM
CAKI-1 renal
  GI50: > 100 µM
  TGI: > 100 µM
HT29 colon
  GI50: > 100 µM
  TGI: > 100 µM
DU-145 prostate
  GI50: > 100 µM
  TGI: > 100 µM
ACHN renal
  GI50: > 100 µM
  TGI: > 100 µM
NCI-H226 lung
  GI50: > 100 µM
  TGI: > 100 µM
SK-MEL-2 melanoma
  GI50: > 100 µM
  TGI: > 100 µM
SF-539 CNS
  GI50: > 100 µM
  TGI: > 100000 nM
HCT-116 colon
  GI50: > 100 µM
  TGI: > 100 µM
SNB-19 CNS
  GI50: > 100 µM
  TGI: > 100 µM
RXF 393 renal
  GI50: > 100 µM
  TGI: > 100 µM
NCI-H522 lung
  GI50: > 100 µM
  TGI: > 100 µM
IGROV1 ovarian
  GI50: > 100 µM
  TGI: > 100 µM
UACC-62 melanoma
  GI50: > 100 µM
  TGI: > 100 µM
SK-OV-3 ovarian
  GI50: > 100 µM
  TGI: > 100 µM
OVCAR-5 ovarian
  GI50: > 100 µM
  TGI: > 100 µM

## CC1(C)N=C(N)N=C(N)N1c1ccc(CCCCCCc2ccc(S(=O)(=O)F)cc2)cc1
SF-295 CNS
  TGI: 22 µM
OVCAR-8 ovarian
  TGI: 7.01 µM
HOP-92 NSCLC
  TGI: 3.15 µM
SK-MEL-5 melanoma
  TGI: 2760 nM
T-47D breast
  TGI: 52 µM
MCF7 breast
  TGI: > 32.3 µM
NCI-H23 lung
  TGI: 12.6 µM
M14 melanoma
  TGI: 28.7 µM
MDA-MB-231 breast
  TGI: 16.5 µM
OVCAR-3 ovarian
  TGI: 32.4 µM
TK-10 renal
  TGI: 15.9 µM
HS 578T breast
  TGI: 30.5 µM
U251 CNS
  TGI: 16.6 µM
SN12C renal
  TGI: 7.02 µM
SK-MEL-28 melanoma
  TGI: 37.7 µM
A549 NSCLC
  TGI: 2760 nM
MALME-3M melanoma
  TGI: 3.79 µM
NCI-H460 lung
  TGI: > 37.8 µM
HOP-62 NSCLC
  TGI: 15.8 µM
HCT-15 colon
  TGI: 20.9 µM
SW-620 colon
  TGI: 4.44 µM
SF-268 CNS
  TGI: 31.3 µM
HCC-2998 colon
  TGI: 16 µM
LOX IMVI melanoma
  TGI: > 20.9 µM
UO-31 renal
  TGI: 29.5 µM
NCI/ADR-RES ovarian
  TGI: 70.9 µM
SNB-75 CNS
  TGI: 24.8 µM
COLO 205 colon
  TGI: 12.8 µM
MDA-MB-435
  TGI: 21.2 µM
EKVX NSCLC
  TGI: 21.3 µM
786-0 renal
  TGI: 16.5 µM
K-562 leukemia
  TGI: > 33.3 µM
OVCAR-4 ovarian
  TGI: > 100 µM
PC-3 prostate
  TGI: 15.4 µM
CAKI-1 renal
  TGI: 44.3 µM
HT29 colon
  TGI: 17.1 µM
DU-145 prostate
  TGI: 21.1 µM
ACHN renal
  TGI: 14.4 µM
NCI-H226 lung
  TGI: 1.96 µM
SK-MEL-2 melanoma
  TGI: 30.2 µM
HCT-116 colon
  TGI: 15.3 µM
SNB-19 CNS
  TGI: 5.17 µM
RXF 393 renal
  TGI: > 33.1 µM
NCI-H522 lung
  TGI: 20.2 µM
IGROV1 ovarian
  TGI: 30.8 µM
UACC-62 melanoma
  TGI: 0.604 µM
SK-OV-3 ovarian
  TGI: 23.3 µM
HL-60(TB) leukemia
  TGI: > 37.3 µM
OVCAR-5 ovarian
  TGI: 15 µM
